Reference: patent US20120202885A1, “METHODS, ASSAYS AND COMPOSITIONS FOR TREATING RETINOL-RELATED DISEASES” (ReVision Therapeutics, Inc., priority 2004, published 2012)

Legend:
[1] = target: interaction of TTR with RBP (Homo sapiens, UniProt P02753); conditions: Malpeli et al., Holven et al.; cited from earlier work
[2] = target: T1, Retinol Binding Protein (RBP) (Homo sapiens, UniProt P02753); assay: Competition binding assay of HPR against RBP-retinol by fluorescence quenching; conditions: physiological temperature; HPR 2 μM (FIG. 9b)
Description: Based upon these findings, we sought to further explore the mechanism(s) of retinol reduction during HPR treatment. A tenable hypothesis is that HPR may displace retinol by competing at the retinol binding site on RBP. […] Therefore, one can measure displacement of retinol from the RBP holoprotein by observing decreases in both protein (340 nm) and retinol (470 nm) fluorescence. We performed a competition binding assay using RBP-retinol/HPR concentrations which were similar to those determined from the 14 day trial at 20 mg/kg HPR described above. […] In the control assays, decreases in retinol fluorescence were associated with concomitant increases in protein fluorescence, see FIG. 9a. This effect was determined to be due to temperature effects as the dissociation constant of RBP-retinol increases (decreased affinity) with increased time at 37 C.

[3] = cited from earlier work
retinol-RBP-TTR complex = retinol-RBP-TTR complex (Homo sapiens, UniProt P02753); assay: High-throughput FRET assay for RBP/TTR interaction; assay type: binding
Description: Reduction of serum retinol and RBP are correlated with concomitant reductions in toxic lipofuscin fluorophores. Because compounds that affect RBP-TTR interaction will directly affect fluorophore levels in the eye, a high-throughput screen for small molecules which prevent interaction of RBP with TTR was developed. This screen employs probe-labeled forms of RBP and TTR which participate in a unique fluorescence resonance energy transfer (FRET) event when complexed. Compounds which interfere with RBP-TTR interaction prevent FRET. Sample spectra taken during the course of this type of assay are shown, in FIG. 4. […] The sample is incubated at 37° C. for 30 min and then illuminated with 330 nm light. The emission spectra are shown in the range of 400-600 nm. HPR binds to RBP and prevents interaction with TTR, and here this property of HPR is utilized here to validate the ability of this screen to detect inhibition of RBP-TTR interaction. […] Additionally, the design of this assay permits discrimination between compounds which interact with RBP versus those which interact with TTR. Thus, by using two distinct excitation energies (280 nm and 330 nm, for protein and retinol, respectively) and implementing simultaneous monitoring of the retinol and TTR-probe fluorescence, the “target” of a presumptive small molecule can be easily determined.
Accordingly, HPR was employed at varied concentrations (from 0-4 μM), using the conditions specified in Example 7, to evaluate the high throughput assay.
The mechanism of action underlying this effect can be explained by the disruption of RBP-TTR interactions. In order to explore this possibility and to further validate the RBP-TTR screen, the effects of all-trans retinoic and 13-cis retinoic acid, using the conditions the conditions specified for analysis of HPR, were examined.

[4] = 14-day HPR dose response on serum retinol (LC/MS of serum extract); assay type: in vivo, mice; conditions: abca4 null mutant, mouse, serum, intraperitoneal; 20 mg/kg HPR; read-out: steady state concentration of HPR in serum
Experimental: (§1) Initial studies began by examining the effect of HPR on serum retinol. Animals were divided into three groups and given either DMSO, 10 mg/kg HPR, or 20 mg/kg HPR for 14 days. At the end of the study period, blood was collected from the animals, sera were prepared and an acetonitrile extract of the serum was analyzed by reverse phase LC/MS. UV-visible spectral and mass/charge analyses were performed to confirm the identity of the eluted peaks. Sample chromatograms obtained from these analyses are shown: FIG. 7a.—extract from an abca4 null mutant mouse receiving HPR vehicle, DMSO; FIG. 7b.—10 mg/kg HPR; FIG. 7c.—20 mg/kg HPR. […] For 20 mg/kg HPR, serum retinol is decreased 72%, see FIG. 8. The steady state concentrations of retinol and HPR in serum (at 20 mg/kg HPR) were determined to be 2.11 μM and 1.75 μM, respectively.

abca4 null mutant mouse = assay: as above; assay type: in vivo, mice; conditions: DMSO, 10 or 20 mg/kg HPR, 14 days
Experimental: as §1

ABCA4 null mutant mice = assay: HPR given i.p. to ABCA4 null mutant mice for 28 days: serum retinol, ocular retinoids and A2E; assay type: in vivo
Experimental: In order to explore the role of HPR in the visual cycle, the in vivo effects of HPR in mice have been examined. Thus, HPR was administered to ABCA4 null mutant mice (5-20 mg/kg, i.p. in DMSO) for periods of 28 days. Control mice received only the DMSO vehicle. At the end of the treatment period, the concentrations of retinol and HPR in serum and retinoid content in ocular tissues was measured. […] Thus, the calculated percent reduction for each of the measured retinoids, and A2E, was nearly identical (see FIG. 2).
Genetic crosses of RBP4^−/− mice with ABCA4^−/− mice was undertaken to examine the role of RBP in mediation of retinol levels in serum and ocular tissue.

[5] = target: T1, Retinol Binding Protein (RBP); assay: Fluorescence quenching study of MPR binding to retinol binding protein; conditions: 1 μM ligand, 0.5 μM Apo-RBP
Experimental: Apo-RBP at 0.5 μM was incubated with 0, 0.25, 0.5, 1 and 2 μM of MPR in PBS at room temperature for 1 hour, respectively. As controls, the same concentration of Apo-RBP was also incubated with 1 μM of HPR or 1 μM of atROL. All mixtures contained 0.2% Ethanol (v/v). The emission spectra were measured between 290 nm to 550 nm with excitation wavelength at 280 nm and 3 nm bandpass.

[6] = 5-20 mg/kg, i.p. in DMSO, 28 days

displacement of retinol from the RBP-retinol holoprotein [2]: efficiently displaces retinol | inhibition of retinol-RBP-TTR complex formation (retinol-RBP-TTR complex; varied concentrations 0-4 μM, FIG. 5): dose dependent inhibition | concentration at 14 days [4]: 1750 nM | binding to RBP [5]: bind to RBP
Structure (SMILES): CC1=C(/C=C/C(C)=C/C=C/C(C)=C/C(=O)Nc2ccc(O)cc2)C(C)(C)CCC1 [HPR, N-(4-hydroxyphenyl)retinamide]
interaction of TTR with RBP [1]: interferes with the normal interaction of TTR with RBP | serum retinol and RBP ([3]; Formelli et al., Torrisi et al.): reductions in serum retinol and RBP | reduction in circulating RBP and retinol ([3]; several investigators, Berni et al. 1993): established in vivo | retinol and TTR-probe fluorescence (loss of RBP-TTR complexation) (retinol-RBP-TTR complex; HPR 1 μM, 0.5 μM RBP + 0.5 μM Alexa430-TTR, 37° C. 30 min, 330 nm excitation): significantly reduced retinol and TTR-probe fluorescence | serum retinol, dose dependence (abca4 null mutant mouse): dose-dependent reduction in serum retinol | ocular retinoids and A2E (ABCA4 null mutant mice; [6]): commensurate reductions in ocular retinoids and A2E | serum retinol as a function of increasing serum HPR (ABCA4 null mutant mice; [6]): Profound reductions in serum retinol | reduction in serum RBP-retinol (ABCA4 null mutant mice; administered dose 10 mg/kg): 50-60% | inhibition of LRAT activity (ABCA4 null mutant mice; mice receiving acute and chronic doses): has not been observed
